Tests used:
[1] = biological target: LMP7 (purified human immuno proteasome) (Homo sapiens, UniProt P28062); assay: Determination of LMP7 activity (fluorescence intensity assay, Suc-LLVY-AMC); assay type: biochemical; conditions: for IC50: 40 μM Suc-LLVY-AMC, 37° C.
Experimental: Measurement of LMP7 inhibition is performed in 384 well format based on fluorescence intensity assay.
(§1) Purified human immuno proteasome (0.5 nM) and serial diluted compounds in DMSO (range of concentrations from 10 μM to 38 pM) or controls (0.5% DMSO) are incubated for 30 minutes at 37° C. in assay buffer containing 50 mM Tris pH 7.4 and 0.03% SDS. The reaction is initiated by the addition of the fluorogenic peptide substrate, Suc-LLVY-AMC (Bachem I-1395), at a concentration of 40 μM. After 90 minutes of incubation at 37° C., fluorescence intensity is measured at λex=350 nm and λem=450 nm with a fluorescence reader (BMG Pherastar reader or equivalent).
as §1, with “proteasome (0.25” for “proteasome (0.5”

[2] = biological target: Beta5 (purified human constitutive proteasome) (Homo sapiens, UniProt P28074); assay: Determination of Beta5 activity (fluorescence intensity assay, Suc-LLVY-AMC); assay type: biochemical; conditions: purified human constitutive proteasome 1.0 nM, 40 μM Suc-LLVY-AMC, 37° C.
Experimental: Measurement of Beta5 inhibition is performed in 384 well format based on fluorescence intensity assay.
as §1, with “human constitutive” for “human immuno”, “proteasome (1.0” for “proteasome (0.5”, “(Bachem 1-1395),” for “(Bachem I-1395),”

[3] = purified human immuno proteasome 0.5 nM
[4] = purified human immuno proteasome 0.25 nM (examples 79, 80, 83, 84, 85, 87, 88, 89, 90, 91, 93, 94, 96, 97, 101 and 110)

Selectivity LMP7 vs Beta5 [1] | IC50 [1, 3] | IC50 [2] | IC50 [1, 4] | Compound
+ (+: Selectivity < 10) | > 5000 nM | > 5000 nM |  | COc1ccc2occ(C[C@H](NC(C)=O)B(O)O)c2c1 [Example 108, (R)-(1-acetamido-2-(5-methoxybenzofuran-3-yl)ethyl)boronic acid]
+++ (+++: Selectivity > 30) | 50 to 500 nM | 500 to 5000 nM |  | CCc1cccc(C[C@H](NC(=O)[C@H](CC(=O)c2ccccc2)c2cccc(Cl)c2)B(O)O)c1 (single isomer, unassigned) [Example 14]
++ (++: 10 < Selectivity < 30) | < 50 nM | 50 to 500 nM |  | O=C(CCn1cnc2ccccc21)N[C@@H](Cc1ccc(F)c(C(F)(F)F)c1)B(O)O [Example 64, (R)-(1-(3-(1H-benzo[d]imidazol-1-yl)propanamido)-2-(4-fluoro-3-(trifluoromethyl)phenyl)ethyl)boronic acid]
++ (++: 10 < Selectivity < 30) | < 50 nM | 50 to 500 nM |  | O=C(N[C@@H](Cc1ccsc1)B(O)O)[C@H](Cc1ccccc1)Cc1cn(-c2ccccc2)nn1 [Example 62, ((R)-1-((R)-2-benzyl-3-(1-phenyl-1H-1,2,3-triazol-4-yl)propanamido)-2-(thiophen-3-yl)ethyl)boronic acid]
+ (+: Selectivity < 10) | 50 to 500 nM | 50 to 500 nM |  | O=C(CCn1cnc2ccccc21)N[C@@H](Cc1ccsc1)B(O)O [Example 33, [(1R)-1-{[3-(1H-benzimidazol-1-yl)propanoyl]amino}-2-(3-thienyl)ethyl]boronic acid]
+++ (+++: Selectivity > 30) | 50 to 500 nM | 500 to 5000 nM |  | CC(=O)N[C@@H](Cc1ccc2ccccc2c1)B(O)O [Example 95, (R)-(1-acetamido-2-(naphthalen-2-yl)ethyl)boronic acid]
++ (++: 10 < Selectivity < 30) |  | < 50 nM | < 50 nM | O=C(CCn1c(=O)sc2ccccc21)N[C@@H](Cc1coc2ccccc12)B(O)O [Example 87, (R)-(2-(benzofuran-3-yl)-1-(3-(2-oxobenzo[d]thiazol-3(2H)-yl)propanamido)ethyl)boronic acid]
+++ (+++: Selectivity > 30) |  | < 50 nM | < 50 nM | O=C(CCn1c(=O)sc2ccccc21)N[C@@H](Cc1ccc2ccccc2c1)B(O)O [Example 96, (R)-(2-(naphthalen-2-yl)-1-(3-(2-oxobenzo[d]thiazol-3(2H)-yl)propanamido)ethyl)boronic acid]
+ (+: Selectivity < 10) | 50 to 500 nM | 50 to 500 nM |  | O=C(CCn1ncc2ccccc21)N[C@@H](Cc1ccsc1)B(O)O [Example 32, [(1R)-1-{[3-(1H-indazol-1-yl)propanoyl]amino}-2-(3-thienyl)ethyl]boronic acid]
 | 50 to 500 nM | > 5000 nM |  | COc1ccc(C(=O)CCC(=O)N[C@@H](Cc2ccc(OC)c(C(F)(F)F)c2)B(O)O)cc1 [Example 46, (R)-(2-(4-methoxy-3-(trifluoromethyl)phenyl)-1-(4-(4-methoxyphenyl)-4-oxobutanamido)ethyl)boronic acid]
+++ (+++: Selectivity > 30) | 50 to 500 nM | > 5000 nM |  | CCc1cccc(C[C@H](NC(=O)CCC(=O)c2ccccc2)B(O)O)c1 [Example 6, {(1R)-2-(3-ethylphenyl)-1-[(4-oxo-4-phenylbutanoyl)amino]ethyl}boronic acid]
+++ (+++: Selectivity > 30) | 50 to 500 nM | > 5000 nM |  | CCc1cccc(C[C@H](NC(=O)[C@H](CC(=O)c2ccccc2)c2ccc(Cl)cc2)B(O)O)c1 (single isomer, unassigned) [Example 15]
+++ (+++: Selectivity > 30) | < 50 nM | 500 to 5000 nM |  | COc1cc(F)cc(C[C@H](NC(=O)CCc2noc(-c3ccccc3)n2)B(O)O)c1 [Example 61, (R)-(2-(3-fluoro-5-methoxyphenyl)-1-(3-(5-phenyl-1,2,4-oxadiazol-3-yl)propanamido)ethyl)boronic acid]
++ (++: 10 < Selectivity < 30) | 50 to 500 nM | 500 to 5000 nM |  | O=C(CCc1noc(-c2ccccc2)n1)N[C@@H](Cc1cccc(OC(F)(F)F)c1)B(O)O [Example 60, (R)-(1-(3-(5-phenyl-1,2,4-oxadiazol-3-yl)propanamido)-2-(3-(trifluoromethoxy)phenyl)ethyl)boronic acid]
+++ (+++: Selectivity > 30) | 50 to 500 nM | > 5000 nM |  | CCc1cccc(C[C@H](NC(=O)CCC(=O)c2ccc(OC)cc2)B(O)O)c1 [Example 7, ((1R)-2-(3-ethylphenyl)-1-{[4-(4-methoxyphenyl)-4-oxobutanoyl]amino}ethyl)boronic acid]
++ (++: 10 < Selectivity < 30) | < 50 nM | < 50 nM |  | O=C(CCc1ccccc1F)N[C@@H](Cc1coc2ccccc12)B(O)O [Example 81, (R)-(2-(benzofuran-3-yl)-1-(3-(2-fluorophenyl)propanamido)ethyl) boronic acid]
+ (+: Selectivity < 10) | < 50 nM | 50 to 500 nM |  | O=C(CCn1cnc2ccccc21)N[C@@H](Cc1cccc(OC(F)(F)F)c1)B(O)O [Example 59, (R)-(1-(3-(1H-benzo[d]imidazol-1-yl)propanamido)-2-(3-(trifluoromethoxy)phenyl)ethyl)boronic acid]
++ (++: 10 < Selectivity < 30) | < 50 nM | 50 to 500 nM |  | CCc1cccc(C[C@H](NC(=O)CCn2nnc3ccccc32)B(O)O)c1 [Example 31, [(1R)-1-{[3-(1H-1,2,3-benzotriazol-1-yl)propanoyl]amino}-2-(3-ethylphenyl)ethyl]boronic acid]
++ (++: 10 < Selectivity < 30) | < 50 nM | 50 to 500 nM |  | COc1cc(F)cc(C[C@H](NC(=O)CCn2cc(-c3ccccc3)nn2)B(O)O)c1 [Example 65, (R)-(2-(3-fluoro-5-methoxyphenyl)-1-(3-(4-phenyl-1H-1,2,3-triazol-1-yl)propanamido)ethyl)boronic acid]
++ (++: 10 < Selectivity < 30) | < 50 nM | 50 to 500 nM |  | O=C(CCc1cn(-c2ccccc2)nn1)N[C@@H](Cc1ccc2ccccc2c1)B(O)O [Example 98, (R)-(2-(naphthalen-2-yl)-1-(3-(1-phenyl-1H-1,2,3-triazol-4-yl)propanamido)ethyl)boronic acid]
++ (++: 10 < Selectivity < 30) |  | < 50 nM | < 50 nM | O=C(CCn1cc(-c2ccccc2)nn1)N[C@@H](Cc1coc2ccccc12)B(O)O [Example 89, (R)-(2-(benzofuran-3-yl)-1-(3-(4-phenyl-1H-1,2,3-triazol-1-yl)propanamido)ethyl)boronic acid]
+++ (+++: Selectivity > 30) | 50 to 500 nM | 500 to 5000 nM |  | O=C(CC(C(=O)N[C@@H](Cc1ccsc1)B(O)O)c1ccc(Cl)cc1)c1ccccc1 (mixture of isomers) [Example 4, [(1R)-1-{[2-(RS)-(4-chlorophenyl)-4-oxo-4-phenylbutanoyl]amino}-2-(3-thienyl)ethyl]boronic acid]
++ (++: 10 < Selectivity < 30) | 50 to 500 nM | 500 to 5000 nM |  | O=C(CCC(=O)c1cccc(-c2ccccc2)n1)N[C@@H](Cc1ccsc1)B(O)O [Example 23, [(1R)-1-{[4-oxo-4-(6-phenylpyridin-2-yl)butanoyl]amino}-2-(3-thienyl)ethyl]boronic acid]
 | 500 to 5000 nM | > 5000 nM |  | CCc1cccc(C[C@H](NC(=O)[C@@H](CC(=O)c2ccccc2)c2ccc(Cl)cc2)B(O)O)c1 (single isomer, unassigned) [Example 16]
+++ (+++: Selectivity > 30) |  | < 50 nM | < 50 nM | O=C(CCc1cccc(F)c1)N[C@@H](Cc1coc2ccccc12)B(O)O [Example 85, (R)-(2-(benzofuran-3-yl)-1-(3-(3-fluorophenyl)propanamido)ethyl) boronic acid]
+++ (+++: Selectivity > 30) |  | < 50 nM | < 50 nM | O=C(CCn1c(=O)sc2ccccc21)N[C@@H](Cc1c[nH]c2ccccc12)B(O)O [Example 101]

Source: patent US9688702B2, “Alpha-amino boronic acid derivatives, selective immunoproteasome inhibitors” (Ares Trading S.A, priority 2011, dated 2017)
